The record followed here is ChEMBL document CHEMBL5653615 (J Biol Chem, 2013).

Experiment [1] deals with RAC-beta serine/threonine-protein kinase (Homo sapiens) (UniProt P31751). Kind of experiment: Inhibition of human AKT2 at 18.6 nM by HotSpot assay relative to control.
Experiment [2] concerns the target Calcium/calmodulin-dependent protein kinase type II subunit alpha (Homo sapiens) (UniProt Q9UQM7). Kind of experiment: Inhibition of human CAMK2a at 18.6 nM by HotSpot assay relative to control.
Experiment [3] deals with CDK3/Cyclin E (Homo sapiens) (UniProt P24864+Q00526). Put plainly: Inhibition of human CDK3/cyclin E at 18.6 nM by HotSpot assay relative to control. It is filed as protein-complex assay.
CDK3/Cyclin E (Homo sapiens), sequence (P24864 whole entry, looked up): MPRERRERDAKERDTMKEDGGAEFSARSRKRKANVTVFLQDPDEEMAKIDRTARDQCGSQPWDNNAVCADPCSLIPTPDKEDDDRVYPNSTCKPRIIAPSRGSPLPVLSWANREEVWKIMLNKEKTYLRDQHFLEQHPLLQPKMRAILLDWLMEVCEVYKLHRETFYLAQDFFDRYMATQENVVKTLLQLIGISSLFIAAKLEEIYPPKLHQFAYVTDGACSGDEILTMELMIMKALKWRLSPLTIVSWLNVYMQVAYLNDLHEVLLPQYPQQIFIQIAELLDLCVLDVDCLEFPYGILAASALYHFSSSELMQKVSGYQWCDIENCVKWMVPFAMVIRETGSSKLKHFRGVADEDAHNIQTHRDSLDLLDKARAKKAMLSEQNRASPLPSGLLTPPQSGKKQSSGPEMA
CDK3/Cyclin E (Homo sapiens), sequence (Q00526 whole entry, looked up): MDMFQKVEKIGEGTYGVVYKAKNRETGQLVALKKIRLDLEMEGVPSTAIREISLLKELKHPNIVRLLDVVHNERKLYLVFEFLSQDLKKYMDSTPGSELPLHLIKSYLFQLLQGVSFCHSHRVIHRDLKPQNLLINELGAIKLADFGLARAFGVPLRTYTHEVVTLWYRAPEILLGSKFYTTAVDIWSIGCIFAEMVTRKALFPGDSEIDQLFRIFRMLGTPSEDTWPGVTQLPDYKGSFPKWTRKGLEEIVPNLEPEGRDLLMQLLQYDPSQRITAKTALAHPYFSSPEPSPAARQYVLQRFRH
Experiment [4] addresses Ephrin type-A receptor 5 (Homo sapiens) (UniProt P54756). Kind of experiment: Inhibition of human EPHA5 at 18.6 nM by HotSpot assay relative to control.
Experiment [5] concerns the target Mitogen-activated protein kinase 11 (Homo sapiens) (UniProt Q15759). Kind of experiment: Inhibition of human MAPK11 at 18.6 nM by HotSpot assay relative to control.
Experiment [6] addresses T1, cGMP-dependent protein kinase 1 (Homo sapiens) (UniProt Q13976).
T1 sequence (whole entry): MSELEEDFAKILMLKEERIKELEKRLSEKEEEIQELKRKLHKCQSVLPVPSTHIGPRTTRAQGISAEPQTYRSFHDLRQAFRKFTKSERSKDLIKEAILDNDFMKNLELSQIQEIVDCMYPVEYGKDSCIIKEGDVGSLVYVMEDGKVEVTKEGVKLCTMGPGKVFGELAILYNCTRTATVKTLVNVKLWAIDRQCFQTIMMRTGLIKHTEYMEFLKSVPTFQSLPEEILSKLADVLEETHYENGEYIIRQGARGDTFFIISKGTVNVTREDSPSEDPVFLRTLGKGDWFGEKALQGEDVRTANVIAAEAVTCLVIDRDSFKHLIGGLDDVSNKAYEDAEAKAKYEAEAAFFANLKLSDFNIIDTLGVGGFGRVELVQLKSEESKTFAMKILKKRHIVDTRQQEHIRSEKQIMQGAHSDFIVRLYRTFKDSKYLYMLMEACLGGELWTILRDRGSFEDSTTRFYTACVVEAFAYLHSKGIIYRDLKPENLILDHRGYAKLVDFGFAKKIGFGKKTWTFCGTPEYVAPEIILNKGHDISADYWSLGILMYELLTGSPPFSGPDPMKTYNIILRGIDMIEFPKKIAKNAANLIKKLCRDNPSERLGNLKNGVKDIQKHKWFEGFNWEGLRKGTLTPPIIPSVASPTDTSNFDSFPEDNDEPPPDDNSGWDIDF
Put plainly: Inhibition of human PKG1a at 18.6 nM by HotSpot assay relative to control.

Experiment [7] addresses Serine/threonine-protein kinase PLK1 (Homo sapiens) (UniProt P53350). Kind of experiment: Inhibition of human PLK1 at 18.6 nM by HotSpot assay relative to control.
Experiment [8] concerns the target T2, Tyrosine-protein kinase ZAP-70 (Homo sapiens) (UniProt P43403).
T2 sequence (whole entry): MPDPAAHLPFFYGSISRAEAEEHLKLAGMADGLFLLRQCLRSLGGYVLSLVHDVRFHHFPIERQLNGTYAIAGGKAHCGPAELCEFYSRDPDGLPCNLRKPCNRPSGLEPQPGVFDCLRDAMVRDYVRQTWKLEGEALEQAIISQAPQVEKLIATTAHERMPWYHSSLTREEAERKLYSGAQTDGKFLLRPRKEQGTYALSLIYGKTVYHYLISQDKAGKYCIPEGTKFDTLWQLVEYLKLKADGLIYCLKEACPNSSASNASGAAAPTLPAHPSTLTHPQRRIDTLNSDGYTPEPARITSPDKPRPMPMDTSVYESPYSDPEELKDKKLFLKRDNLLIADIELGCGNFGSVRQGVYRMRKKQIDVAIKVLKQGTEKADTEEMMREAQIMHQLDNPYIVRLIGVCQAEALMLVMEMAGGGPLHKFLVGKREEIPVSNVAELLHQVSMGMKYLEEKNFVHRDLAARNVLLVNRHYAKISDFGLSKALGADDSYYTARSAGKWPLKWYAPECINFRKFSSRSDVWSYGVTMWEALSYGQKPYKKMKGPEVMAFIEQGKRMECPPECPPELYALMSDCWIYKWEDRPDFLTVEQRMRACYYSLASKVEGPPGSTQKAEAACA
Put plainly: Inhibition of human ZAP70 at 18.6 nM by HotSpot assay relative to control.

The target of experiment [9] is Calcium/calmodulin-dependent protein kinase kinase 1 (Homo sapiens) (UniProt Q8N5S9). Kind of experiment: Inhibition of human CAMKK1 at 1.82 nM by HotSpot assay relative to control.
Calcium/calmodulin-dependent protein kinase kinase 1 (Homo sapiens), sequence (Q8N5S9 whole entry, looked up): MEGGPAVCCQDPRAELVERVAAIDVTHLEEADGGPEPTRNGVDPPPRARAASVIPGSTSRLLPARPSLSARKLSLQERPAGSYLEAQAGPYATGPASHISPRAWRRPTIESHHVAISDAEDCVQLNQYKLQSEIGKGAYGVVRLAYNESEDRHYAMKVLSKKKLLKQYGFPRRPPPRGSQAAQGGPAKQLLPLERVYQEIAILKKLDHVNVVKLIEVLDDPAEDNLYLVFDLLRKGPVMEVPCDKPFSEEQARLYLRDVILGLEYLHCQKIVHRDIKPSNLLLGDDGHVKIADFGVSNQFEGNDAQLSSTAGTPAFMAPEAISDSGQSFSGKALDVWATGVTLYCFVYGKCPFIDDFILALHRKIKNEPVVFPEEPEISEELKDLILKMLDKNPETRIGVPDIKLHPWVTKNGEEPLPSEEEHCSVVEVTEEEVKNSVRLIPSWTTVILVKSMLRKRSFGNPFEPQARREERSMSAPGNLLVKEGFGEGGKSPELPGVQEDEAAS
The target of experiment [10] is Serine/threonine-protein kinase Chk2 (Homo sapiens) (UniProt O96017). Kind of experiment: Inhibition of human CHK2 at 1.82 nM by HotSpot assay relative to control.
Experiment [11] concerns the target Fibroblast growth factor receptor 4 (Homo sapiens) (UniProt P22455). Kind of experiment: Inhibition of human FGFR4 at 1.82 nM by HotSpot assay relative to control.
In experiment [12] the target is Insulin receptor-related protein (Homo sapiens) (UniProt P14616). Kind of experiment: Inhibition of human IRR at 1.82 nM by HotSpot assay relative to control.
Insulin receptor-related protein (Homo sapiens), sequence (P14616 27-742 limits assumed): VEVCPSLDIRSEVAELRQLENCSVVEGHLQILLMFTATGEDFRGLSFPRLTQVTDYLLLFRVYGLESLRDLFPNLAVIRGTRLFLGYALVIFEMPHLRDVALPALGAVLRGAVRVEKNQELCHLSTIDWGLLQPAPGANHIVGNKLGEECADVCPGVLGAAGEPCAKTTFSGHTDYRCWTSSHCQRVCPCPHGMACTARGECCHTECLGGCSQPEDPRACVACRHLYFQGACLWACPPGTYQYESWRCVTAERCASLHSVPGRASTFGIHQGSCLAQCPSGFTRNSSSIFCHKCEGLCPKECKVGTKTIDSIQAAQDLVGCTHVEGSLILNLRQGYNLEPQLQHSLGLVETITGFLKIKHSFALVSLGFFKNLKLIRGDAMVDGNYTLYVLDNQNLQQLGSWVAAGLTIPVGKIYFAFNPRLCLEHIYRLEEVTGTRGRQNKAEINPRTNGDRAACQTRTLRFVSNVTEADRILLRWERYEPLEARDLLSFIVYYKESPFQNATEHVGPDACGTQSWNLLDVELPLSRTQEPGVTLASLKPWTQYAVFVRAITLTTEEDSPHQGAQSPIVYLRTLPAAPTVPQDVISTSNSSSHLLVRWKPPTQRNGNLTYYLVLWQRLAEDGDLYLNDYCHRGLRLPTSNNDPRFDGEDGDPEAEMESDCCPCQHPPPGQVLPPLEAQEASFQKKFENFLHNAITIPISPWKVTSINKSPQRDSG
Insulin receptor-related protein (Homo sapiens), sequence (P14616 747-1297 limits assumed): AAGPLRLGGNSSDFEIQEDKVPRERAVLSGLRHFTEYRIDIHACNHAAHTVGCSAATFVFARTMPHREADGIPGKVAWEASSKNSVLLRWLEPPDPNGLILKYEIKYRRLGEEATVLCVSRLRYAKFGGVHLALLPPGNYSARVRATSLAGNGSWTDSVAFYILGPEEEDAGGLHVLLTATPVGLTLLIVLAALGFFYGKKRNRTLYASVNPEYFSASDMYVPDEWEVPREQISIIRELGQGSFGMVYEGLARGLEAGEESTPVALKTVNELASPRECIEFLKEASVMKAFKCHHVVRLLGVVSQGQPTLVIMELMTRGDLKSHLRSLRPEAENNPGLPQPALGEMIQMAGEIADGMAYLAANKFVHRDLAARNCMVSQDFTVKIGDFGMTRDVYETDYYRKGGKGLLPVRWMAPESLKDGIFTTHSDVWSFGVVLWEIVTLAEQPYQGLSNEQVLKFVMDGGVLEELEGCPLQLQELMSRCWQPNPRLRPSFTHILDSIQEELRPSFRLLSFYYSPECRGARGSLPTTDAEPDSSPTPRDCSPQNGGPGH
The target of experiment [13] is Serine/threonine-protein kinase 26 (Homo sapiens) (UniProt Q9P289). Put plainly: Inhibition of human MST4 at 1.82 nM by HotSpot assay relative to control.
Serine/threonine-protein kinase 26 (Homo sapiens), sequence (Q9P289 2-416 limits assumed): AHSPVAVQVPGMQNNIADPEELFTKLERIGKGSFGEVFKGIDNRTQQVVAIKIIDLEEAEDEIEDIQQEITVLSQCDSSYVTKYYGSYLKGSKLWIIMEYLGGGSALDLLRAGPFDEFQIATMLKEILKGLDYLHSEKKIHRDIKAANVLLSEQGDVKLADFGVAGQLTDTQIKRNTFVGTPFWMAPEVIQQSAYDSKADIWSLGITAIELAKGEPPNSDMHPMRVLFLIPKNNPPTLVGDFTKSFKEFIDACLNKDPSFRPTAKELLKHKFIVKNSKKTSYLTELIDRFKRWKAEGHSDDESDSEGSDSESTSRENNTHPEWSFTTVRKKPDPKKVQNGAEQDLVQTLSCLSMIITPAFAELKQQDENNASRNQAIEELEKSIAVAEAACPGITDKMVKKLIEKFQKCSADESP
The target in experiment [14] is T3, Mitogen-activated protein kinase 13 (Homo sapiens) (UniProt O15264).
T3 sequence (whole entry): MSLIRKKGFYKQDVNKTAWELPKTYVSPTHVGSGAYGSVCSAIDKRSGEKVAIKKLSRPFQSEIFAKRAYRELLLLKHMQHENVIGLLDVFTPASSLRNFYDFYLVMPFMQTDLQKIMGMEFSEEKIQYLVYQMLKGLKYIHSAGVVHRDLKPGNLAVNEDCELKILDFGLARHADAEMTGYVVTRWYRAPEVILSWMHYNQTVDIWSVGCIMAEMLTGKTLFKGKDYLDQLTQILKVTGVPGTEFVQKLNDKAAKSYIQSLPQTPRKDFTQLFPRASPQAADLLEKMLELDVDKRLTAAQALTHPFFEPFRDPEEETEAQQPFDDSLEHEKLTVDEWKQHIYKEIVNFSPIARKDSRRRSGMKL
Kind of experiment: Inhibition of human MAPK13 at 1.82 nM by HotSpot assay relative to control.

Mitogen-activated protein kinase 11 (Homo sapiens), sequence (Q15759 whole entry): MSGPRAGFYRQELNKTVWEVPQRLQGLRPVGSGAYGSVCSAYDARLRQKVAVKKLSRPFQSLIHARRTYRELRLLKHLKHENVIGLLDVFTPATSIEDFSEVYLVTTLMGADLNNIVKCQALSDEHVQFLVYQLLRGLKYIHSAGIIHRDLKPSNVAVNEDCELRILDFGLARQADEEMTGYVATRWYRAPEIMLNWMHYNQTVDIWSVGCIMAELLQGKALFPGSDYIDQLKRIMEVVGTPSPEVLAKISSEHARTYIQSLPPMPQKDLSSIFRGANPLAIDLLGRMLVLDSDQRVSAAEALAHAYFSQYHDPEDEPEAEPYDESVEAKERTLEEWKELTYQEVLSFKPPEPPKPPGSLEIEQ
Calcium/calmodulin-dependent protein kinase type II subunit alpha (Homo sapiens), sequence (Q9UQM7 whole entry): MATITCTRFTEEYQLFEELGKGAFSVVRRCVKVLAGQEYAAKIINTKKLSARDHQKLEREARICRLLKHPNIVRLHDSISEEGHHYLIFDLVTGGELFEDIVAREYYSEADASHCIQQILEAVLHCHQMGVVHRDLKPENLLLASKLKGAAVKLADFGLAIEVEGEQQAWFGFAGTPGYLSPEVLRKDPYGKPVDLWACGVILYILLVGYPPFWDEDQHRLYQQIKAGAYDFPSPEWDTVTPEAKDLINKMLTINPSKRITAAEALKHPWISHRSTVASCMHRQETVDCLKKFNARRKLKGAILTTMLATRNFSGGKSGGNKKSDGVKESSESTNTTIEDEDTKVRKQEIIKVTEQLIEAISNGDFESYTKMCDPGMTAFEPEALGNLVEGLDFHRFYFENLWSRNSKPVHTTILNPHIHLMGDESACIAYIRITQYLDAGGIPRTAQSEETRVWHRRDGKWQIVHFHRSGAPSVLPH
Ephrin type-A receptor 5 (Homo sapiens), sequence (P54756 whole entry): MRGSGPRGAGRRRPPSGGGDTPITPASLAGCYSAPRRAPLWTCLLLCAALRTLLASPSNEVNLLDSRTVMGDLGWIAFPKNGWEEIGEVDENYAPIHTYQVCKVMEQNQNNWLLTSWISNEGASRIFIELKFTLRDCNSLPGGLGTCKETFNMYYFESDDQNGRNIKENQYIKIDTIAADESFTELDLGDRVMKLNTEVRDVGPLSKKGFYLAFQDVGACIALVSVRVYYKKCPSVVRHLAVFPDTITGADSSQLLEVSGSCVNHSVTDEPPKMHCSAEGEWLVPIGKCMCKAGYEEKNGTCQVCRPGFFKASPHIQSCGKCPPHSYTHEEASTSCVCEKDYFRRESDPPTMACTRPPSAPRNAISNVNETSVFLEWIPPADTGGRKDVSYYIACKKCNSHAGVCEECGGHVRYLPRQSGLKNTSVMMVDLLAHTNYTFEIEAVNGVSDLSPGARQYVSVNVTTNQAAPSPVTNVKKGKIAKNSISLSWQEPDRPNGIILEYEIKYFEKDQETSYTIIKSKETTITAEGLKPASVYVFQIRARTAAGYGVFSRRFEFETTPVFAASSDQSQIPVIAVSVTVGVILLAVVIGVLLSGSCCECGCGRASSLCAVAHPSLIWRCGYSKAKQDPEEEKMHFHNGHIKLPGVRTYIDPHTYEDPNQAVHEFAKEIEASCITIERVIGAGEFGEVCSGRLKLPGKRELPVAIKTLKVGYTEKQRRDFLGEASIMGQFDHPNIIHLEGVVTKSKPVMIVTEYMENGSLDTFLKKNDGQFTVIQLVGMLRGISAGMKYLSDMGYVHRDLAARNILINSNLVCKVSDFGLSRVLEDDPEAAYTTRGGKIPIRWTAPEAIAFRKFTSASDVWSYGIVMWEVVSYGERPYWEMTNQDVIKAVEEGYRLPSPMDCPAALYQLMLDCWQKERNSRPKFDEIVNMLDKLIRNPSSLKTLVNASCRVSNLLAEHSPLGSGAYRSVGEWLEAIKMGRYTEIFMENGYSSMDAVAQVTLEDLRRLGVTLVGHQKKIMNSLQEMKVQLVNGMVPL

As usually defined, the inhibition is the drop in the measured response relative to a control, in per cent. `C[C@]1(O)C[C@@H](c2nc(-c3ccc4ccc(-c5ccccc5)nc4c3)c3c(N)nccn32)C1`: the inhibition in [1] is 0.3%; in experiment [2] it was -4.3%; in [3] it was 0.86%; in [4] it was 0.67%; in [5] it was -4.21%; in experiment [6], 5.49%. Moreover, the inhibition in experiment [7] was -7.65%; in experiment [8], -3.52%.
Regarding `C[C@@]1(C(=O)Nc2ccc(F)nc2)CCCN1c1nc(Nc2cc(C3CC3)n[nH]2)c2cccn2n1`, the inhibition was -5.91% in [9]; 0.29% in experiment [10]; 6.74% in experiment [11]; 33.5% in [12]; -1.09% in [13]; -4.13% in [14].
